Results reported in US5332731A, “Cephalosporin derivatives” (Meiji Seika Kaisha, Ltd., priority 1989, dated 1994).
≈ marks a conversion by molar mass, not a printed value.

What was measured:
Test in all cases: antibacterial activity, MIC by standard serial dilution method
Type in all cases: cell-based
[1] = tested on: Enterobacter hirae ATCC8043
From the text: (§1) Antibacterial activity of Compounds Nos. 1, 3, 5, 7, 9, 11, 13, 15, 17, 19, 21, 23, 25, 27, 29, 31, 33, 35 and 37 indentified hereinbefore which are the particular examples of the new cephalosporin derivative of general formula (I) according to this invention and which are in the form of the free carboxylic acid was estimated by determining the minimum inhibitory concentrations (MIC., μg/ml) of these compounds against a variety of bacteria according to a standard serial dilution method.

[2] = tested on: Escherichia coli NIHJ JC-2; settings: NIHJJC2
From the text: as §1

[3] = tested on: Escherichia coli 255
From the text: as §1

[4] = tested on: Proteus vulgaris GN76
From the text: as §1

[5] = tested on: Enterobacter cloacae GN7471
From the text: as §1

[6] = tested on: Entrobacter faecalis W-73
From the text: as §1

[7] = tested on: Marganella morganii 1510/S-1
From the text: as §1

[8] = tested on: Escherichia coli W3630 RGN823; settings: W3630RGN823
From the text: as §1

[9] = tested on: Escherichia coli 255/S-1; settings: 255/S1
From the text: as §1

[10] = tested on: Pseudomonas aeruginosa GN10362
From the text: as §1

[11] = tested on: Escherichia coli GN206
From the text: as §1

[12] = tested on: Klebsiella pneumoniae PCI602
From the text: as §1

[13] = tested on: Marganella morganii 1510
From the text: as §1

[14] = tested on: Citrobacter freundii GN346
From the text: as §1

[15] = tested on: Enterobacter cloacae G-0008; settings: G0008
From the text: as §1

[16] = tested on: Staphylococcus aureus 209P JC-1
From the text: as §1

[17] = tested on: Serratia marcescens No. 1
From the text: as §1

[18] = tested on: Staphylococcus epidermidis ATCC14990
From the text: as §1

[19] = tested on: Proteus vulgaris GN76/C-1
From the text: as §1

[20] = tested on: Serratia marcescens GN10857
From the text: as §1

[21] = tested on: Citrobacter freundii GN346/16
From the text: as §1

[22] = tested on: Klebsiella pneumoniae GN69
From the text: as §1

SMILES	MIC [1] [µg/mL]	MIC [2] [µg/mL]	MIC [3] [µg/mL]	MIC [4] [µg/mL]	MIC [5] [µg/mL]	MIC [6] [µg/mL]	MIC [7] [µg/mL]	MIC [8] [µg/mL]	MIC [9] [µg/mL]	MIC [10] [µg/mL]	MIC [11] [µg/mL]	MIC [12] [µg/mL]	MIC [13] [µg/mL]	MIC [14] [µg/mL]	MIC [15] [µg/mL]	MIC [16] [µg/mL]	MIC [17] [µg/mL]	MIC [18] [µg/mL]	MIC [19] [µg/mL]	MIC [20] [µg/mL]	further results
Nc1nc(/C(=N/O)C(=O)NC2C(=O)N3C(C(=O)O)=C(SCC4CCCO4)CS[C@H]23)cs1 (some centres unmarked) [Compound No. 11, 7-[(Z)-2-(2-aminothiazol-4-yl)-2-hydroxyiminoacetamido]-3-tetrahydrofurfurylthio-3-cephem-4-carboxylic acid]	6.25 (≈ 12.9 µM)	1.56 (≈ 3.21 µM)	50 (≈ 103 µM)	0.78 (≈ 1.61 µM)	50 (≈ 103 µM)	6.25 (≈ 12.9 µM)	0.39 (≈ 0.803 µM)	1.56 (≈ 3.21 µM)	0.78 (≈ 1.61 µM)	> 100	12.5 (≈ 25.7 µM)	0.78 (≈ 1.61 µM)	50 (≈ 103 µM)	> 100	1.56 (≈ 3.21 µM)	0.2 (≈ 0.412 µM)	1.56 (≈ 3.21 µM)	0.2 (≈ 0.412 µM)	6.75 (≈ 13.9 µM)	> 100	MIC [21]: 6.25 µg/mL (≈ 12.9 µM); MIC [22]: 0.78 µg/mL (≈ 1.61 µM)
Nc1nc(/C(=N/O)C(=O)NC2C(=O)N3C(C(=O)O)=C(SC4CCOC4)CS[C@H]23)cs1 (some centres unmarked) [Compound No. 13, 7-[(Z)-2-(2-aminothiazol-4-yl)-2-hydroxyiminoacetamido]-3-(tetrahydrofuran-3-yl)thio-3-cephem-4-carboxylic acid]	3.13 (≈ 6.64 µM)	0.39 (≈ 0.827 µM)	50 (≈ 106 µM)	1.56 (≈ 3.31 µM)	100 (≈ 212 µM)	12.5 (≈ 26.5 µM)	0.2 (≈ 0.424 µM)	1.56 (≈ 3.31 µM)	0.39 (≈ 0.827 µM)	> 100	12.5 (≈ 26.5 µM)	0.2 (≈ 0.424 µM)	12.5 (≈ 26.5 µM)	> 100	6.25 (≈ 13.3 µM)	0.2 (≈ 0.424 µM)	3.13 (≈ 6.64 µM)	0.2 (≈ 0.424 µM)	6.25 (≈ 13.3 µM)	> 100	MIC [21]: 3.13 µg/mL (≈ 6.64 µM); MIC [22]: 0.39 µg/mL (≈ 0.827 µM)
Nc1nc(/C(=N/O)C(=O)NC2C(=O)N3C(C(=O)O)=C(SC4CCOCC4)CS[C@H]23)cs1 (some centres unmarked) [Compound No. 15, 7-[(Z)-2-(2-aminothiazol-4-yl) -2-hydroxyiminoacetamido]-3-(tetrahydropyran-4-yl)thio-3-cephem-4-carboxylic acid]	6.25 (≈ 12.9 µM)	0.78 (≈ 1.61 µM)	50 (≈ 103 µM)	1.56 (≈ 3.21 µM)	100 (≈ 206 µM)	1.56 (≈ 3.21 µM)	0.2 (≈ 0.412 µM)	12.5 (≈ 25.7 µM)	0.39 (≈ 0.803 µM)	> 100	12.5 (≈ 25.7 µM)	0.39 (≈ 0.803 µM)	50 (≈ 103 µM)	> 100	1.56 (≈ 3.21 µM)	0.2 (≈ 0.412 µM)	6.25 (≈ 12.9 µM)	0.2 (≈ 0.412 µM)	6.25 (≈ 12.9 µM)	> 100	MIC [21]: 6.25 µg/mL (≈ 12.9 µM); MIC [22]: 0.78 µg/mL (≈ 1.61 µM)
CC1(C)OCCC(CSC2=C(C(=O)O)N3C(=O)C(NC(=O)/C(=N\O)c4csc(N)n4)[C@H]3SC2)O1 (some centres unmarked) [Compound No. 17, 7 - [(Z)-2-(2-aminothiazol-4-yl) -2-hydroxyiminoacetamido]-3-(2,2-dimethyl-1,3-dioxan-4-yl)methylthio-3-cephem-4-carboxylic acid]	25 (≈ 47.2 µM)	6.25 (≈ 11.8 µM)	100 (≈ 189 µM)	3.13 (≈ 5.91 µM)	> 100	6.25 (≈ 11.8 µM)	3.13 (≈ 5.91 µM)	6.25 (≈ 11.8 µM)	6.25 (≈ 11.8 µM)	> 100	25 (≈ 47.2 µM)	6.25 (≈ 11.8 µM)	> 100	> 100	12.5 (≈ 23.6 µM)	0.78 (≈ 1.47 µM)	12.5 (≈ 23.6 µM)	0.39 (≈ 0.736 µM)	25 (≈ 47.2 µM)	> 100	MIC [21]: 12.5 µg/mL (≈ 23.6 µM); MIC [22]: 3.13 µg/mL (≈ 5.91 µM)
CO/N=C(\C(=O)NC1C(=O)N2C(C(=O)O)=C(SC3COCOC3)CSC12)c1csc(N)n1 (centres unmarked) [Compound No. 19]	25 (≈ 49.8 µM)	0.39 (≈ 0.778 µM)	25 (≈ 49.8 µM)	0.05 (≈ 0.0997 µM)	50 (≈ 99.7 µM)	100 (≈ 199 µM)	0.1 (≈ 0.199 µM)	0.78 (≈ 1.56 µM)	0.39 (≈ 0.778 µM)	> 100	3.13 (≈ 6.24 µM)	< 0.025	12.5 (≈ 24.9 µM)	> 100	0.39 (≈ 0.778 µM)	0.39 (≈ 0.778 µM)	0.78 (≈ 1.56 µM)	0.78 (≈ 1.56 µM)	1.56 (≈ 3.11 µM)	50 (≈ 99.7 µM)	MIC [21]: 3.13 µg/mL (≈ 6.24 µM); MIC [22]: 0.2 µg/mL (≈ 0.399 µM)
